Test results as given in US9453014B2, “Cyclic amide derivatives as inhibitors of 11-β-hydroxysteroid dehydrogenase and uses thereof” (CONNEXIOS LIFE SCIENCES PVT. LTD., priority 2011, dated 2016).
Read-outs that look alike come from different tables or passages of the source.

Biological target: T1, human full length HSD11 β 1 (Homo sapiens, UniProt P28845)
T1 construct: transient expression of human full length HSD11 β 1 expression vector; host or cells: CHO cells (transient transfection)
Assay: In Vitro HSD11β1 Inhibition Assay
Type: cell-based
Protocol: In Vitro HSD11β1 Inhibition Assay:
CHO cells were maintained in Dulbecco's modified Eagle's medium/nutrient mixture F-12 containing 5% fetal bovine serum (v/v) and 2 mM glutamine. Cells were cultured at 37° C. with 5% CO2. For transient expression of human full length HSD11 β 1 expression vector (OriGene Technologies), cells were seeded at a density of 2×10^5 cells/well in a 6-well plate. Transfection was done using Turbofectin8 reagent (OriGene Technologies), according to the protocol provided with the reagent. After 24 hours post-transfection, cells were trypsinized and pooled together before they were re-seeding to 96-well plate at a density of 40000 cells/well. 24 hours after re-seeding, cells were incubated with 200 nM cortisone+500 uM NADPH (or along with small molecule inhibitors) overnight. The enzymatic activity or inhibition of enzyme activity was measured by estimating the conversion of cortisone to cortisol by LC/MS-MS method. The IC50 in nM was calculated from an 8 point log scale of concentration versus inhibition.

[1] = CHO cells transiently expressing human HSD11β1, 200 nM cortisone+500 uM NADPH overnight, cortisone to cortisol by LC/MS-MS, read-out: 11βHSD1 (IC50)

T1 sequence (P28845 whole entry): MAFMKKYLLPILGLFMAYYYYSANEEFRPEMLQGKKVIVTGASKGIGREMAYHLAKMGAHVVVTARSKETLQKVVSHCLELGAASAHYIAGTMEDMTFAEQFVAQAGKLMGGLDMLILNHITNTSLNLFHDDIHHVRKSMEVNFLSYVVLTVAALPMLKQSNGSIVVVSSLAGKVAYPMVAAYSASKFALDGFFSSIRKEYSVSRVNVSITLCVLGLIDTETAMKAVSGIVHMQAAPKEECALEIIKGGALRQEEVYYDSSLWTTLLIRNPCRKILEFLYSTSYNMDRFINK

Structure (SMILES) | IC50 [1] | IC50 (11βHSD1 (IC50))
Cn1cc(C(C)(C)C(=O)N2CCCC3CCCCC32)c2ccccc21 (centres unmarked) [Compound 2, 2-methyl-2-(1-methyl-1H-indol-3-yl)-1-(octahydroquinolin-1(2H)-yl)propan-1-one] | > 250 nM | –
Cc1ccc2[nH]cc(CCC(=O)N3CCCC4CCCCC43)c2c1 (centres unmarked) [Compound 3, 3-(5-methyl-1H-indol-3-yl)-1-(octahydroquinolin-1(2H)-yl)propan-1-one] | 150 to 200 nM | –
O=C(CCc1c[nH]c2ccc(F)cc12)N1CCCC2CCCCC21 (centres unmarked) [Compound 4, 3-(5-fluoro-1H-indol-3-yl)-1-(octahydroquinolin-1(2H)-yl)propan-1-one] | 100 to 150 nM | –
O=C(CCc1c[nH]c2ccc(Cl)cc12)N1CCCC2CCCCC21 (centres unmarked) [Compound 6, 3-(5-chloro-1H-indol-3-yl)-1-(octahydroquinolin-1(2H)-yl)propan-1-one] | 200 to 250 nM | –
COc1ccc2[nH]cc(CCC(=O)N3CCCC4CCCCC43)c2c1 (centres unmarked) [Compound 7, 3-(5-methoxy-1 fi-indol-3-yl)-1-(octahydroquinolin-1 (2H)-yl)propan-1-one] | > 250 nM | –
O=C(/C=C/c1c[nH]c2ccccc12)N1CCCC2CCCCC21 (centres unmarked) [Compound 8, (2E)-3-(1H-indol-3-yl)-1-(octahydroquinolin-1(2H)-yl)prop-2-en-1-one] | 100 to 150 nM | –
O=C(Cc1c[nH]c2ccc(F)cc12)N1CCCC2CCCCC21 (centres unmarked) [Compound 10, 2-(5-fluoro-1H-indol-3-yl)-1-(octahydroquinolin-1(2H)-yl)ethanone] | 100 to 150 nM | –
O=C(CCCc1c[nH]c2ccccc12)N1CCCC2CCCCC21 (centres unmarked) [Compound 11, 4-(1H-indol-3-yl)-1-(octahydroquinolin-1(2H)-yl)butan-1-one] | 100 to 150 nM | –
Cn1cc(CCC(=O)N2CCCC3CCCCC32)c2ccccc21 (centres unmarked) [Compound 13, 3-(1-methyl-1H-indol-3-yl)-1-(octahydroquinolin-1(2H)-yl)propan-1-one] | < 100 nM | –
O=C(CCc1cc2ccccc2[nH]1)N1CCCC2CCCCC21 (centres unmarked) [Compound 14, 3-(1H-indol-2-yl)-1-(octahydroquinolin-1(2H)-yl)propan-1-one] | > 250 nM | –
O=C(CCc1c[nH]c2ccc(O)cc12)N1CCCC2CCCCC21 (centres unmarked) [Compound 15, 3-(5-hydroxy-1H-indol-3-yl)-1-(octahydroquinolin-1(2H)-yl)propan-1-one] | 100 to 150 nM | –
Cc1[nH]c2ccc(F)cc2c1CCC(=O)N1CCCC2CCCCC21 (centres unmarked) [Compound 16, 3-(5-fluoro-2-methyl-1H-indol-3-yl)-1-(octahydroquinolin-1(2H)-yl)propan-1-one] | 150 to 200 nM | –
Cc1[nH]c2ccccc2c1CCC(=O)N1CCCC2CCCCC21 (centres unmarked) [Compound 17, 3-(2-methyl-1H-indol-3-yl)-1-(octahydroquinolin-1(2H)-yl)propan-1-one] | < 100 nM | –
O=C(CCn1ccc2ccccc21)N1CCCC2CCCCC21 (centres unmarked) [Compound 18, 3-(1H-indol-1-yl)-1-(octahydroquinolin-1(2H)-yl)propan-1-one] | > 250 nM | –
O=C(CC(=O)N1CCCC2CCCCC21)c1c[nH]c2ccc(Cl)cc12 (centres unmarked) [Compound 19, 1-(5-chloro-1H-indol-3-yl)-3-(octahydroquinolin-1(2H)-yl)propane-1,3-dione] | > 250 nM | –
Cc1cccc2[nH]cc(CCC(=O)N3CCCC4CCCCC43)c12 (centres unmarked) [Compound 20, 3-(4-methyl-1H-indol-3-yl)-1-(octahydroquinolin-1(2H)-yl)propan-1-one] | < 100 nM | –
O=C(CCc1c[nH]c2ccccc12)N1CCC2CCCCC2C1 (centres unmarked) [Compound 21, 3-(1H-indol-3-yl)-1-(octahydroisoquinolin-2(1H)-yl)propan-1-one] | > 250 nM | –
CC(CC(=O)N1CCOC2CCCCC21)c1c[nH]c2ncccc12 (centres unmarked) [Compound 22, 1-(octahydro-4H-1,4-benzoxazin-4-yl)-3-(1H-pyrrolo[2,3-b]pyridin-3-yl)butan-1-one] | > 250 nM | –
CC(C)(C)NC(=O)C1CC2CCCCC2CN1C(=O)CCc1c[nH]c2ccccc12 (centres unmarked) [Compound 23, N-tert-butyl-2-[3-(1H-indol-3-yl)propanoyl]decahydroisoquinoline-3-carboxamide] | > 250 nM | –
Cn1cc(CCC(=O)N2CCCC3CCCCC32)c2cc(O)ccc21 (centres unmarked) [Compound 24, 3-(5-hydroxy-1-methyl-1H-indol-3-yl)-1-(octahydroquinolin-1(2H)-yl)propan-1-one] | > 250 nM | –
CC(Oc1c[nH]c2ccccc12)C(=O)N1CCCC2CCCCC21 (centres unmarked) [Compound 25, 2-(1H-indol-3-yloxy)-1-(octahydroquinolin-1(2H)-yl)propan-1-one] | > 250 nM | –
Cc1cccc2c1c(CCC(=O)N1CCCC3CCCCC31)cn2C (centres unmarked) [Compound 27, 3-(1,4-dimethyl-1H-indol-3-yl)-1-(octahydroquinolin-1(2H)-yl)propan-1-one] | < 100 nM | –
Cc1cccc2c1c(CCC(=O)N1CCCC3CCCCC31)cn2C1CC1 (centres unmarked) [Compound 28, 3-(1-cyclopropyl-4-methyl-1H-indol-3-yl)-1-(octahydroquinolin-1(2H) -yl)propan-1-one] | 100 to 150 nM | –
Cc1cccc2[nH]cc(C(=O)CC(=O)N3CCCC4CCCCC43)c12 (centres unmarked) [Compound 30, 1-(4-methyl-1H-indol-3-yl)-3-(octahydroquinolin-1(2H)-yl)propane-1,3-dione] | – | > 250 nM
N#C/C(=C\c1c[nH]c2ccccc12)C(=O)N1CCCC2CCCCC21 (centres unmarked) [Compound 31, (2E)-3-(1H-indol-3-yl)-2-(octahydroquinolin-1(2H)-ylcarbonyl)prop-2-enenitrile] | > 250 nM | –
CCn1cc(CCC(=O)N2CCCC3CCCCC32)c2c(C)cccc21 (centres unmarked) [Compound 33, 3-(1-ethyl-4-methyl-1H-indol-3-yl)-1-(octahydroquinolin-1(2H)-yl)propan-1-one] | > 250 nM | –
Cc1cccc2[nH]cc(CCC(=O)N3C(C)CCC4CCCCC43)c12 (centres unmarked) [Compound 35, 3-(4-methyl-1H-indol-3-yl)-1-(2-methyloctahydroquinolin-1(2H)-yl)propan-1-one] | < 100 nM | –

Now from value to compound, other results behind:

IC50 [1] | Structure (SMILES) | IC50 (11βHSD1 (IC50))
> 250 nM | O=C(O)C1CCN(C(=O)CC(c2ccccc2)c2c[nH]c3cc(F)ccc23)C2CCCCC12 (single isomer, unassigned) [Example 160, 1-[3-(6-fluoro-1H-indol-3-yl)-3-phenylpropanoyl]decahydroquinoline-4-carboxylic acid] | –
< 100 nM | O=C(O)C1CCN(C(=O)CC(c2ccccc2)c2c[nH]c3cccc(F)c23)C2CCCCC12 (single isomer, unassigned) [Example 161, 1-[3-(4-fluoro-1H-indol-3-yl)-3-phenylpropanoyl]decahydroquinoline-4-carboxylic acid] | –
> 250 nM | O=C(O)C1CCN(C(=O)CC(c2ccccc2)c2c[nH]c3cccc(F)c23)C2CCCCC12 (single isomer, unassigned) [Example 162, 1-[3-(4-fluoro-1H-indol-3-yl)-3-phenylpropanoyl]decahydroquinoline-4-carboxylic acid] | –
150 to 200 nM | CC(C)C(CC(=O)N1CCC(C(=O)O)C2CCCCC21)c1c[nH]c2cc(F)ccc12 (single isomer, unassigned) [Example 177, 1-[3-(6-fluoro-1H-indol-3-yl)-4-methylpentanoyl]decahydroquinoline-4-carboxylic acid] | –
> 250 nM | CC(C)C(CC(=O)N1CCC(C(=O)O)C2CCCCC21)c1c[nH]c2cc(F)ccc12 (single isomer, unassigned) [Example 178, 1-[3-(6-fluoro-1H-indol-3-yl)-4-methylpentanoyl]decahydroquinoline-4-carboxylic acid] | –
> 250 nM | O=C(O)C1CCN(C(=O)CC(c2ccccc2)n2nnc3ccccc32)C2CCCCC12 (single isomer, unassigned) [Example 181, 1-[3-(1H-benzotriazol-1-yl)-3-phenylpropanoyl]decahydroquinoline-4-carboxylic acid] | –
> 250 nM | O=C(O)C1CCN(C(=O)CC(c2ccccc2)n2nnc3ccccc32)C2CCCCC12 (single isomer, unassigned) [Example 182, 1-[3-(1H-benzotriazol-1-yl)-3-phenylpropanoyl]decahydroquinoline-4-carboxylic acid] | –
< 100 nM | CC(CC(=O)N1CCCC2CCCCC21)c1c[nH]c2ccccc12 (centres unmarked) [Compound 1, 3-(1H-indol-3-yl)-1-(octahydroquinolin-1(2H)-yl)butan-1-one] | –
< 100 nM | O=C(CSc1c[nH]c2ccccc12)N1CCCC2CCCCC21 (centres unmarked) [Compound 5, 2-(1H-indol-3-ylsulfanyl)-1-(octahydroquinolin-1(2H)-yl)ethanone] | –
200 to 250 nM | O=C(Cc1c[nH]c2ccccc12)N1CCCC2CCCCC21 (centres unmarked) [Compound 9, 2-(1H-indol-3-yl)-1-(octahydroquinolin-1(2H)-yl)ethanone] | –
> 250 nM | CC1CCN(C(=O)CCc2c[nH]c3ccccc23)C2CCCCC12 (centres unmarked) [Compound 12, 3-(1H-indol-3-yl)-1-(4-methyloctahydroquinolin-1(2H)-yl)propan-1-one] | –
> 250 nM | O=C1CCN(C(=O)CCc2c[nH]c3ccccc23)C2CCCCC12 (centres unmarked) [Compound 26, 1-[3-(1H-indol-3-yl)propanoyl]octahydroquinolin-4(1H)-one] | –
> 250 nM | Cc1cccc2[nH]cc(CCC(=O)N3CCC(=O)C4CCCCC43)c12 (centres unmarked) [Compound 32, 1-[3-(4-methyl-1H-indol-3-yl)propanoyl]octahydroquinolin-4(1H)-one] | –
> 250 nM | CC1(O)CCN(C(=O)CCc2c[nH]c3ccccc23)C2CCCCC21 (centres unmarked) [Compound 34, 1-(4-hydroxy-4-methyloctahydroquinolin-1(2H)-yl)-3-(1H-indol-3-yl)propan-1-one] | –
